≈ marks a conversion by molar mass, not a printed value.
Key:
E. coli MG1655 [1] = test: Whole-cell accumulation assay (LC-MS/MS); format: cell-based, Escherichia coli
Method: (§1) II. Materials and Methods for Biological Experiments
S. aureus ATCC 29213 and E. coli MG1655 were obtained from the American Type Culture Collection (ATCC). E. coli BW25113 and E. coli JW5503 were obtained from the Keio Collection. AR-bank strains were obtained from the Centers for Disease Control and Prevention and FDA Antibiotic Resistance Isolate Bank. […]
The accumulation assay4 was performed in triplicate with each batch containing tetracycline as a positive control. E. coli MG1655 was used in these experiments. For each replicate, 2.5 mL of an overnight culture of E. coli was diluted into 250 mL of fresh Luria Bertani (LB) broth (Lennox) and grown at 37 °C with shaking to an optical density (OD600) of 0.55. The bacteria were pelleted at 3220 r.c.f. for 10 min at 4 °C and the supernatant was discarded. The pellets were resuspended in 40 mL of phosphate buffered saline (PBS) and pelleted as before, and the supernatant discarded. […] The number of colony-forming units (CFUs) was determined by a calibration curve. […] Supernatants were analyzed by LC-MS/MS.
Samples were analyzed with the […] LC-MS/MS system (AB Sciex) with a 1200 series HPLC system (Agilent Technologies) including a degasser, an autosampler, and a binary pump. […]
The source temperature was 450 °C. […] Multiple reaction monitoring was used for quantification. […] All compounds evaluated in biological assays were ≥95% pure.

E. coli MG1655 [2] = test: Serial passaging; format: cell-based, Escherichia coli; settings: E. coli MG1655, subinhibitory concentration, 21 days
Method: Serial passaging procedure was done as reported in literature.5 Briefly, E. coli MG1655 cells were grown in 0.6 mL of MH media containing fabimycin and ciprofloxacin (control) at different concentrations. Cells were added to the respective compounds at 0.25X, 0.5X, 1X, 2X, and 4X to start. At 22-24 hours the cultures were checked for growth. […]
compound at varying concentrations based off of the MIC. This serial passaging was repeated for 21 days. […]
All cells were cultured […]
at 37 °C under a 5% CO2 environment. Cell lines were authenticated by a commercial vendor and inspected visually in house. Cell lines were not tested for Mycoplasma contamination. The media was prepared by the University of Illinois School of Chemical Sciences Cell Media Facility.
H. sapiens HFF-1, A549, and HepG2 cells were seeded (3,000-6,000 cells/well) in a 96-well plate (Greiner Bio-One;

A. baumannii AR-0088 = test: MIC against infective strain of PK/thigh models; format: cell-based; settings: Acinetobacter baumannii, AR0088; drug-resistant A. baumannii, infective strain of the PK study (AR-0088)
Method: as §1
(§2) S. aureus ATCC 29213 and E. coli MG1655 were obtained from the American Type Culture Collection (ATCC). E. coli BW25113 and E. coli JW5503 were obtained from the Keio Collection. AR-bank strains were obtained from the Centers for Disease Control and Prevention and FDA Antibiotic Resistance Isolate Bank.
(§3) Antimicrobial susceptibility tests
(§4) Susceptibility testing was performed in biological triplicate, unless noted otherwise, using the micro-dilution broth method as outlined by the Clinical and Laboratory Standards Institute. Bacteria were cultured with cation-adjusted Mueller Hinton broth (Sigma Aldrich, catalogue number: 90922). […]
(§5) Error bars represent the standard error of the mean of three biological replicates. All compounds evaluated in biological assays were ≥95% pure.

A. baumannii 19606 = test: MIC, broth microdilution (CLSI); format: cell-based; settings: Acinetobacter baumannii
Procedure, shortened: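 MIC by CLSI micro-dilution broth method; medium cation-adjusted Mueller Hinton broth; biological triplicate unless stated otherwise.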

[3] = test system: K. pneumoniae clinical isolates (n=100); test: MIC50/MIC90, clinical isolate panel; format: cell-based; settings: Klebsiella pneumoniae; K. pneumoniae (n=100) clinical isolates
Excerpt: Figure 4 Antimicrobial activity of fabimycin against clinical isolates. (A) The susceptibility of clinical isolates (Gram-negative species and S. aureus) to fabimycin, Debio-1452-NH3, and Debio-1452. MICs performed in biological triplicate. (B) Further exploration of the breadth of fabimycin’s antibacterial activity against diverse clinical isolate panels of K. pneumoniae and A. baumannii, as compared to levofloxacin. MICs performed in biological duplicate.
as §1, §2, §3, §4, §5

SMILES | whole-cell accumulation (E. coli MG1655 [1]) | increase in the MIC after serial passaging (E. coli MG1655 [2]) [fold] | MIC (A. baumannii AR-0088) [µg/mL] | MIC (A. baumannii 19606) [µg/mL] | MIC50 [3] [µg/mL] | MIC90 [3] [µg/mL]
Cc1c(CN(C)C(=O)/C=C/c2cnc3c(c2)CCCC(=O)N3)oc2ccccc12 [compound 10] | reduced whole-cell accumulation | – | – | – | – | –
Cc1c(CN(C)C(=O)/C=C/c2cnc3c(c2)CC[C@H](N)C(=O)N3)oc2ccccc12 [fabimycin] | – | 8 | 2 (≈ 4.94 µM) | 2 (≈ 4.94 µM) | 1 (≈ 2.47 µM) | 4 (≈ 9.89 µM)

Reference: paper PMC9413440, “An Iterative Approach Guides Discovery of the FabI Inhibitor Fabimycin, a Late-Stage Antibiotic Candidate with In Vivo Efficacy against Drug-Resistant Gram-Negative Infections” (ACS Central Science, 2022)
